Read-outs that look alike come from different tables or passages of the source. Values belong to the compound of their own block, whether it stands above or below them.
Assays:
[1] = target: T1, human MC-4R (Homo sapiens, UniProt P32245); experiment: Biological Assay: inhibition of AgRP functional interaction with MC-4R in presence of αMSH (cAMP production); type: cell-based; details: HEK293 cells expressing human MC-4R, AgRP83-132 and αMSH present
T1 construct: expressed in transfected cells
Procedure: The following method is illustrative of techniques that may be employed to measure the ability of the compounds of Formula (I) to functionally modulate the binding of AgRP to melanocortin receptors. In particular, the assay below measures the ability of compounds of Formula (I) or pharmaceutically acceptable salts thereof to functionally modulate the binding of AgRP to MC-4R in the presence of a MC-4R agonist, such as alpha-MSH.
HEK293 cells stably expressing human MC-4R receptors were grown in high glucose Dulbecco's Modified Eagle Medium (DMEM) with 4500 mg glucose/L, L-glutamine, NaHCO3, pyrdoxin HCl, 10 mM HEPES (pH 7.4), 0.1 mM NEAA (non-essential amino acid medium) (GIBCO Cat#11140-050), 10% fetal bovine serum and 700 μg/mL G418. Cells were grown in T-225 flasks at 37° C. with CO2 and humidity control.
On the day of assay, cells were washed twice with phosphate buffered saline without calcium and magnesium (PBS) and incubated with 10 mL PBS until the cells were detached from the flask. The detached cells were centrifuged at 240 g for 5 min. The cell pellet was re-suspended in assay buffer (Earle's balanced salt solution (Sigma E3024) supplemented with 10 mM HEPES, pH 7.4, 0.5 mM IBMX and protease inhibitor cocktail (Roche, 1 complete tablet/75 mL buffer)).
The inhibitory or enhancement effect of compounds on AgRP activity was measured in a multi-component assay containing testing compounds, AgRP83-132 (human, Phoenix Pharma, cat no. 003-53), cells expressing MC-4R, and αMSH (Bachem, cat no. H-1075). Test compounds, AgRP and αMSH were diluted with assay buffer. Test compounds and AgRP were mixed to 4 times of the final concentration and incubated at room temperature for 30 min. Five μL of testing compound/AgRP solution followed with 10 μL of cells (20,000 cells/well) were added to each well of a 384-well reaction plate before 5 μL of αMSH was added. Cells were stimulated with αMSH for an additional 30 min at 37° C.
Stimulation of cells was stopped by adding a lysis buffer and cells were lysed. The intracellular concentration of cAMP may be measured by various techniques known to one of skill in the art including, but not limited to, fluorescence polarization (FP) and time-resolved fluorescence (TRF).
The inhibition was shown by an increase in MC-4R mediated cAMP production.

[2] = Pharmacokinetic screening in rats (plasma and brain); details: rat, 5 mg/kg PO; for concentration at 2 h: male, Sprague Dawley, po, 5 mg/kg, 2 hour time point; for Brain - 24 hours AUC (h * ng/g): 24 hour study
[3] = Stability in Liver Microsomes (monkey); type: in vitro ADME; details: 1 μM, 0.5 mg protein/mL, NADPH, 60 minutes, 37° C., pH 7.4
Procedure: (§1) Various compounds were tested for their stability in human, monkey, dog, rat, and mouse liver microsomes. At a final concentration of 1 μM, compounds were incubated with either human, monkey, dog, rat, or mouse liver microsomes (0.5 mg protein/mL) in the presence of an NADPH-solution for 60 minutes at 37° C., pH 7.4 in phosphate buffer. Incubations were performed in duplicate. Reactions were terminated by the addition of methanol. The incubation solution was vortexed and transferred into a 96-well plate. The plate was sealed and centrifuged at approximately 3500 rpm for approximately 10 minutes. After centrifugation, the plate was loaded into 96-well plate autosampler and analyzed by LC/MS. Values are reported as percent of compound remaining after 1 hour.

[4] = Stability in Liver Microsomes (dog); type: in vitro ADME; details: 1 μM, 0.5 mg protein/mL, NADPH, 60 minutes, 37° C., pH 7.4
Procedure: as §1

[5] = Stability in Liver Microsomes (rat); type: in vitro ADME; details: 1 μM, 0.5 mg protein/mL, NADPH, 60 minutes, 37° C., pH 7.4
Procedure: as §1

[6] = Stability in Liver Microsomes (human); type: in vitro ADME; details: 1 μM, 0.5 mg protein/mL, NADPH, 60 minutes, 37° C., pH 7.4
Procedure: as §1

[7] = Stability in Liver Microsomes (mouse); type: in vitro ADME; details: 1 μM, 0.5 mg protein/mL, NADPH, 60 minutes, 37° C., pH 7.4
Procedure: as §1

[8] = read-out: Average EC50 (nM) in Biological Assay
[9] = plasma, Plasma - 2 hours (ng/mL)

T1 sequence (P32245 whole entry): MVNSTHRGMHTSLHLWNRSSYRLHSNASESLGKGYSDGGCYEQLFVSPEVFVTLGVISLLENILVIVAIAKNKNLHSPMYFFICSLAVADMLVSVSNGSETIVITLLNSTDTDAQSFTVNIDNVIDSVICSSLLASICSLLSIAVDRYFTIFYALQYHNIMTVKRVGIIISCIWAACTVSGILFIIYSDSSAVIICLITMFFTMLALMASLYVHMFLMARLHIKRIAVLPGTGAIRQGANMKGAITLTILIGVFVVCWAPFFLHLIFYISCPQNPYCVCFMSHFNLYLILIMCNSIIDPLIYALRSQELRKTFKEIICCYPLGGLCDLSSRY

SMILES: COC1CCC(c2csc(N(CCC(=O)O)Cc3ccc(C)s3)n2)CC1 (stereo not drawn) [Example 31, 3-[[4-(4-Methoxy-cyclohexyl)-thiazol-2-yl]-(5-methyl-thiophen-2-ylmethyl)-amino]-propionic acid]
Stability in Liver Microsomes (% remaining after 1 hour incubation) Monkey [3]: 88%
Stability in Liver Microsomes (% remaining after 1 hour incubation) Dog [4]: 94%
Stability in Liver Microsomes (% remaining after 1 hour incubation) Rat [5]: 83%
Stability in Liver Microsomes (% remaining after 1 hour incubation) Human [6]: 83%
Stability in Liver Microsomes (% remaining after 1 hour incubation) Mouse [7]: 91%
EC50 [1, 8]: 1570 nM

SMILES: Cc1ccc(CN(CCC(=O)O)c2nc(C3CCC(F)(F)CC3)cs2)s1 [Example 23, Sodium; 3-[[4-(4,4-difluoro-cyclohexyl)-thiazol-2-yl]-(5-methyl-thiophen-2-ylmethyl)-amino]-propionate]
Stability in Liver Microsomes (% remaining after 1 hour incubation) Monkey [3]: 56%
Stability in Liver Microsomes (% remaining after 1 hour incubation) Dog [4]: 94%
Stability in Liver Microsomes (% remaining after 1 hour incubation) Rat [5]: 15%
Stability in Liver Microsomes (% remaining after 1 hour incubation) Human [6]: 71%
Stability in Liver Microsomes (% remaining after 1 hour incubation) Mouse [7]: 60%
EC50 [1, 8]: 366 nM

SMILES: CCC1CCC(c2csc(N(CCC(=O)O)Cc3ccc(C)s3)n2)CC1 (stereo not drawn) [Example 19, 3-[[4-(4-Ethyl-cyclohexyl)-thiazol-2-yl]-(5-methyl-thiophen-2-ylmethyl)-amino]-propionic acid]
Stability in Liver Microsomes (% remaining after 1 hour incubation) Monkey [3]: 60%
Stability in Liver Microsomes (% remaining after 1 hour incubation) Dog [4]: 87%
Stability in Liver Microsomes (% remaining after 1 hour incubation) Rat [5]: 52%
Stability in Liver Microsomes (% remaining after 1 hour incubation) Human [6]: 43%
Stability in Liver Microsomes (% remaining after 1 hour incubation) Mouse [7]: 73%
EC50 ([1]; Average EC50 (nM) in Biological Assay): 386 nM

SMILES: CCc1ccc(CN(CCC(=O)[O-])c2nc(-c3ccc(N4CCCC4)cc3)cs2)s1.[Na+] [Reference Compound F, reference compound]
Stability in Liver Microsomes (% remaining after 1 hour incubation) Monkey [3]: 5%
Stability in Liver Microsomes (% remaining after 1 hour incubation) Dog [4]: 45%
Stability in Liver Microsomes (% remaining after 1 hour incubation) Rat [5]: 27%
Stability in Liver Microsomes (% remaining after 1 hour incubation) Human [6]: 40%
Stability in Liver Microsomes (% remaining after 1 hour incubation) Mouse [7]: 30%

SMILES: CC(C)(C)[C@H]1CC[C@H](c2csc(N(CCC(=O)O)Cc3cccs3)n2)CC1 [Reference Compound D, Sodium 3-[[4-(trans-4-tert-butyl-cyclohexyl)-thiazol-2-yl]-(thiophen-2-ylmethyl)-amino]-propionate, reference compound]
Stability in Liver Microsomes (% remaining after 1 hour incubation) Monkey [3]: 76%
Stability in Liver Microsomes (% remaining after 1 hour incubation) Dog [4]: 47%
Stability in Liver Microsomes (% remaining after 1 hour incubation) Rat [5]: 26%
Stability in Liver Microsomes (% remaining after 1 hour incubation) Human [6]: 51%
Stability in Liver Microsomes (% remaining after 1 hour incubation) Mouse [7]: 79%

SMILES: O=C([O-])CCN(Cc1cccs1)c1nc(C2CCC(c3ccccc3)CC2)cs1.[Na+] (stereo not drawn) [Reference Compound E, Sodium 3-[[4-(trans-4-phenyl-cyclohexyl)-thiazol-2-yl]-(5-thiophen-2-ylmethyl)-amino]-propionate, reference compound]
Stability in Liver Microsomes (% remaining after 1 hour incubation) Monkey [3]: 38%
Stability in Liver Microsomes (% remaining after 1 hour incubation) Dog [4]: 50%
Stability in Liver Microsomes (% remaining after 1 hour incubation) Rat [5]: 52%
Stability in Liver Microsomes (% remaining after 1 hour incubation) Human [6]: 60%
Stability in Liver Microsomes (% remaining after 1 hour incubation) Mouse [7]: 51%

SMILES: CCc1ccc(CN(CCC(=O)O)c2nc(CC3CCCC3)cs2)s1 [Example 4, 3-[(4-Cyclopentylmethyl-thiazol-2-yl)-(5-ethyl-thiophen-2-ylmethyl)-amino]-propionic acid]
EC50 [1, 8]: 324 nM
concentration at 2 h ([2]; brain, Brain - 2 hours (ng/g)): 98 ng/g
concentration at 2 h [2, 9]: 590 ng/mL

Next, values leading:

EC50 [1, 8]: 116 nM
concentration at 2 h ([2]; brain, Brain - 2 hours (ng/g)): 42 ng/g
concentration at 2 h [2, 9]: 50 ng/mL
SMILES: Cc1ccc(CN(CCC(=O)O)c2nc(C3(CC(C)C)CCCC3)cs2)s1 [Example 42, 3-[[4-(1-Isobutyl-cyclopentyl)-thiazol-2-yl]-(5-methyl-thiophen-2-ylmethyl)-amino]-propionic acid]

EC50 [1, 8]: 250 nM
concentration at 2 h ([2]; brain, Brain - 2 hours (ng/g)): 248 ng/g
concentration at 2 h [2, 9]: 445 ng/mL
Brain - 24 hours AUC (h * ng/g) [2]: + (values less than 5,000 h*ng/g)
SMILES: Cc1ccc(CN(CCC(=O)[O-])c2nc(C3(c4ccccc4)CCCCC3)cs2)s1.[Na+] [Example 6, Sodium; 3-{(5-methyl-thiophen-2-ylmethyl)-[4-(1-phenyl-cyclohexyl)-thiazol-2-yl]-amino}-propionate]

Stability in Liver Microsomes (% remaining after 1 hour incubation) Monkey [3]: 83%
Stability in Liver Microsomes (% remaining after 1 hour incubation) Dog [4]: 99%
Stability in Liver Microsomes (% remaining after 1 hour incubation) Rat [5]: 86%
Stability in Liver Microsomes (% remaining after 1 hour incubation) Human [6]: 92%
Stability in Liver Microsomes (% remaining after 1 hour incubation) Mouse [7]: 87%
EC50 [1, 8]: 191 nM
SMILES: Cc1ccc(CN(CCC(=O)[O-])c2nc(C3CCC(C4CCCCC4)CC3)cs2)s1.[Na+] (stereo not drawn) [Example 60, Sodium; 3-[(4-bicyclohexyl-4-yl-thiazol-2-yl)-(5-methyl-thiophen-2-ylmethyl)-amino]-propionate]

EC50 [1, 8]: 135 nM
concentration at 2 h ([2]; brain, Brain - 2 hours (ng/g)): 80 ng/g
concentration at 2 h [2, 9]: 261 ng/mL
SMILES: CCc1ccc(CN(CCC(=O)O)c2nc(C3CCCCC3)cs2)s1 [Example 2, 3-[(4-cyclohexyl-thiazol-2-yl)-(5-ethyl-thiophen-2-ylmethyl)-amino]-propionic acid]

EC50 [1, 8]: 36 nM
concentration at 2 h ([2]; brain, Brain - 2 hours (ng/g)): 2980 ng/g
concentration at 2 h [2, 9]: 7710 ng/mL
Brain - 24 hours AUC (h * ng/g) [2]: ++++ (values above 20,000 h*ng/g)
SMILES: CCc1ccc(CN(CCC(=O)O)c2nc(C3CCC(C)(C)CC3)cs2)s1 [Example 54, 3-[[4-(4,4-Dimethyl-cyclohexyl)-thiazol-2-yl]-(5-ethyl-thiophen-2-ylmethyl)-amino]-propionic acid]

EC50 [1, 8]: 94 nM
concentration at 2 h ([2]; brain, Brain - 2 hours (ng/g)): 720 ng/g
concentration at 2 h [2, 9]: 1330 ng/mL
SMILES: CCc1ccc(CN(CCC(=O)O)c2nc(C3CC4CCCCC4C3)cs2)s1 (stereo not drawn) [Example 58, 3-{(5-Ethyl-thiophen-2-ylmethyl)-[4-(octahydro-inden-2-yl)-thiazol-2-yl]-amino}-propionic acid]

EC50 [1, 8]: 246 nM
concentration at 2 h ([2]; brain, Brain - 2 hours (ng/g)): 691 ng/g
concentration at 2 h [2, 9]: 2650 ng/mL
SMILES: CCc1ccc(CN(CCC(=O)O)c2nc(CC3CCCCC3)cs2)s1 [Example 3, 3-[(4-Cyclohexylmethyl-thiazol-2-yl)-(5-ethyl-thiophen-2-ylmethyl)-amino]-propionic acid]

EC50 [1, 8]: 58 nM
concentration at 2 h ([2]; brain, Brain - 2 hours (ng/g)): 886 ng/g
concentration at 2 h [2, 9]: 2090 ng/mL
Brain - 24 hours AUC (h * ng/g) [2]: + (values less than 5,000 h*ng/g)
SMILES: CCc1ccc(CN(CCC(=O)[O-])c2nc(C3(C)CCC(C)CC3)cs2)s1.[Na+] (stereo not drawn) [Example 47, Sodium; 3-[[4-(1,4-dimethyl-cyclohexyl)-thiazol-2-yl]-(5-ethyl-thiophen-2-ylmethyl)-amino]-propionate]

Source: patent US8563742B2, “Substituted aminothiazole derivatives, pharmaceutical compositions, and methods of use” (High Point Pharmaceuticals, LLC, priority 2008, dated 2013)
